Test results: publication PMC9027599, “Secondary Metabolites in Basil, Bio-Insecticide, Inhibition Effect, and In Silico Molecular Docking against Proteolytic Enzymes of the Red Palm Weevil (Rhynchophorus ferrugineus)” (Plants, 2022)

Legend:
[1] = test system: R. ferrugineus fourth larvae; assay: Topical application (contact insecticide) on larvae; assay type: in vivo, Rhynchophorus ferrugineus; details: 4th larvae, probit analysis, 95% confidence limits in brackets
Method: The R. ferrugineus adult and larvae were acquired from an insect breeding lab at King Faisal University’s Date Palm Research Center of Excellence and grown utilizing sugarcane stem long pieces. The extracts activity against larvae was determined by using topical application method with storing larvae at 4–5 °C for 5 min. Previous serial concentrations of extract (10 µL) were applied to the dorsum of each larvae using a hand-operated micro-applicator (Burkard Manufacturing Co., Ltd., Hertfordshire, UK with a 50-ll micro-syringe (MS-N50; Ito Corp., Shizuoka, Japan). Each larva was feeding on 10 cm stem pieces of long sugarcane, with 5 larvae/box with three replicates. After topical administration, larval mortality was determined after 24, 48, 72, and 96 h to determine the LD50. Adults were tested for antifeedant effect determined using ten-centimeter-long sections of sugarcane stem divided into equal longitudinal halves. Pieces of long sections of sugarcane stem with area ~32.2 cm^2 were dipped for ten seconds in the previous serial concentration of extract (10 mL) and, then, dried in room temperature air. […] Each package received a replacement pair (male and female). Each treatment was replicated ten times. After 24, 48, 72, and 96 h, feeding observations were assayed.
Finney states that the statistical analysis and probit analysis were conducted using the SPSS 25.0 program (Statistical Package for Social Sciences, Armonk, NY, USA). Chemical components were determined by PCA using SPSS 25.0 program and presented using XLSTAT 2018.1. PCA is a clustering technique that is used to determine the relationships between samples. […] We did a mortality against dosage regression and converted the resultant median dose to an LC50 value (µg/mL). The range of LC50 was calculated with a 95 percent confidence interval using least-squares. We conducted a one-way analysis of variance on the enzyme activity data (ANOVA). The Student–Newman–Keuls (SNK) test was applied with separate means, and differences at p ≤ 0.05 were considered significant.

[2] = test system: total proteases; assay: Total protease activity of midgut from larvae treated 24 h (in vivo); design: species or system Rhynchophorus ferrugineus; details: midgut of fourth instar larvae treated for 24 h
Method: The Lowry technique was used to determine the protein concentrations. Total proteolytic activity was determined in the fourth midgut instar larval (lab strain) homogenate of R. ferrugineus with azocasein in accordance with […] et al. […] [70]. […] Using a Sigma 3k30 cooling centrifuge, reserve homogenates prepared in a previous stage were spun at 5000 rpm for 30 min. Estimates of protein content and total proteolytic enzyme activity were made using the supernatants. The supernatant (10 μL) was incubated at 37 °C for 20 min, and the volume was adjusted to 60 μL using an assay buffer (pH 8), before adding azocasien (200 μL, 2% (w/v)). […] Following that, to activate the reaction, the substrate was introduced 20 min for Leupeptin, so the reaction was halted after 180 min at 37 °C with 300 μL of cool tri-chloroacetic acid (TCA) (10% (v/v). The mixture was centrifuged for 20 min at 5000 rpm (Sigma 3k30 cooling centrifuge). […] To learn more about the proteases found in homogenate preparations of R. ferrugineus fourth midgut larval instars, inhibitors from many different types of mechanisms were used. […] As a control, an assay combination devoid of inhibitors was utilized. The absorbance of the enzymes was determined using an ELISA plate quick reader at various wavelengths. The percentage activity of the control enzyme for each inhibitor was evaluated for each enzyme. […] Larvae were exposed for 24 h to leaf discs treated with extract and compounds.

[3] = test system: metalloprotease; assay: Metalloprotease activity of midgut from larvae treated 24 h (in vivo); design: species or system Rhynchophorus ferrugineus; details: midgut of fourth instar larvae treated for 24 h
Method: (§1) A substrate azocasein assessed the metalloproteinases activity in the fourth midgut instar larval homogenate. Ten larvae were carefully removed, dissected, and rinsed repeatedly with NaCl solution (0.9% (w/v). […] After homogenization, the homogenates were centrifuged at 5000 rpm (for 30 min) using a Sigma centrifuge 3k30, and the supernatant was utilized to determine enzyme activity and protein content. The supernatant per experiment (10 µL) was incubated for 20 min at 37 °C, and the volume was adjusted to 60 µL using assay buffer pH 8 before adding azocasein (200 µL, 2% (w/v)). In all instances, 10 µL enzyme samples were incubated for 10 min (except EDTA with 20 min), and EDTA was used as a blocker of metalloproteinase activity before being added to the specific substrate. The reaction was interrupted with 300 µL of trichloroacetic acid (TCA cold, 10% (v/v) and continued at 37 °C for 180 min. The reaction mixture was then centrifuged at 5000 rpm for 20 min (Sigma centrifuge 3k30), sodium hydroxide (10 µL of 10 N) was incorporated into the supernatant, then absorbance was determined using an ELISA plate reader at 450 nm. As a blank, an assay mixture devoid of the enzyme was devoted, the specific activity was determined using the OD450 mg^−1 protein min^−1 value, and a blank solution sample devoid of enzyme solution was determined. To learn more about the proteases found in homogenate preparations of R. ferrugineus fourth midgut larval instars, inhibitors from many different types of mechanisms were used. […] As a control, an assay combination devoid of inhibitors was utilized. The absorbance of the enzymes was determined using an ELISA plate quick reader at various wavelengths. The percentage activity of the control enzyme for each inhibitor was evaluated for each enzyme. […] Larvae were exposed for 24 h to leaf discs treated with extract and compounds.

[4] = target: metalloprotease; assay: Metalloproteinase activity, azocasein (in vitro); assay type: biochemical, Rhynchophorus ferrugineus; details: fourth instar larvae midgut homogenate
Method: as §1

Row | Compound | LD50 [1] | IC50 against total proteases (in vivo) [2] [µg/mL] | IC50 against metalloprotease (in vivo) [3] [µg/mL] | IC50 against metalloprotease (in vitro) [4] [µg/mL]
1 | O=C(O)C[C@H](C(=O)O)[C@@H](O)C(=O)O [Isocitric acid] | 23.9 (21.1–24.6) µg/Larvae | 486.3 | 169.2 | 127.8
2 | O=C(/C=C/c1ccc(O)c(O)c1)O/C=C\c1ccc(O)c(O)c1 [Nepetoidin B] | 11.9 (11.1–12.3) µg/Larvae | 179.4 | 95.8 | 51.1
3 | C[C@@H]1O[C@@H](OC[C@H]2O[C@@H](Oc3c(-c4ccc(O)c(O)c4)oc4cc(O)cc(O)c4c3=O)[C@H](O)[C@@H](O)[C@@H]2O)[C@H](O)[C@H](O)[C@H]1O [Quercetin-3-O-rutinoside] | 16.9 (15.1–17.6) µg/Larvae | 286.4 | 612.4 | 37.3
4 | O=C(/C=C/c1ccc(O)c(O)c1)O[C@H](Cc1ccc(O)c(O)c1)C(=O)O [Rosmarinic acid] | 12.4 (11.8–12.7) µg/Larvae | 186.2 | 86.7 | 48.4
5 | COc1ccc(-c2cc(=O)c3c(O)c(OC)c(OC)cc3o2)cc1 [Salvigenin, 5-Hydroxy-6,7,4′-trimethoxyflavone] | 11.4 (10.4–11.8) µg/Larvae | 164.8 | 113.7 | 49.1
6 | dicaffeoyl-tartaric acid [Chicoric acid] | 10.23 (9.87–10.94) µg/Larvae | 146.2 | 74.2 | 44.6
